Test results from US7550468B2, “Theophylline and 3-isobutyl-1 methylxanthine based N-7 substituted derivatives displaying inhibitory activities on PDE-5 phospodiesterase” (priority 2000, dated 2009).

Legend:
PDE5 (human platelet) = target: T1, PDE5 (human platelet) (Homo sapiens, UniProt O76074); experiment: PDE5 (human platelet) inhibition; assay type: biochemical
T1 construct: PDE5 (human); from tissue; host or cells: human platelets

Rabbit Corpus Cavernosal = experiment: Relaxation of phenylephrine precontracted rabbit corpus cavernosal strips; assay type: cell-based; settings: for IC50 / EC50: Oryctolagus cuniculus
Excerpt: Recently some reports have stated that theophyllline has an adenosine […] antagonist and phosphodiesterase (PDE) inhibitor function. […] FIG. 4A illustrates the experimental results and the effects of compound 14 on phenylphrine precontracted rabbit corpus cavemosal in the absence and presence of L-NAME, methylene blue, ODQ. FIG. 4B illustrates the experimental results and the effects of compound 14 on phenylphrine precontracted rabbit corpus cavernosal in absence and presence of potassium channel blockers.

intracavernous pressure = experiment: Intracavernous pressure and tumescence response in rabbits; assay type: in vivo; settings: 2 mg/kg in rabbits

Compound | IC50 (PDE5 (human platelet)) | IC50 (Rabbit Corpus Cavernosal) | Duration of tumescence response (intracavernous pressure) | Peak increased intracavernous pressure ΔICP (mmHg) (intracavernous pressure) | also measured
7-{2-[(2-propoxybenzyl)aniino]ethyl}-3-isobutyl-1-methylxanthine [Compound 38] | 0.6 ± 0.2 nM |  |  |  | pEC50 (−log EC50) for relaxation (Rabbit Corpus Cavernosal): 8.16 ± 0.07
COc1ccccc1N1CCN(CCn2cnc3c2c(=O)n(C)c(=O)n3C)CC1 [Compound 10, 7-{2-[4-(o-Methoxyphenyl)piperazinyl]ethyl}-1,3-dimethylxanthine] |  |  | 13 ± 2.1 min | 12 ± 1.6 mmHg | 
7-{2-[4-(nitrobenzene)piperazinyl]ethyl}-1,3-dimethylxanthine [Compound 9] |  |  | 16 ± 1.2 min | 25 ± 1.3 mmHg | 
CCOc1ccc(S(=O)(=O)N2CCN(C)CC2)cc1CNCCn1cnc2c1c(=O)n(C)c(=O)n2C [Compound 34, 7-[2-({5-[(4-methylpiperazin-1-yl)sulfonyl]-2-ethoxybenzyl}amino)ethyl] dimethylxanthine] | 0.4 ± 0.2 nM |  |  |  | pEC50 (−log EC50) for relaxation (Rabbit Corpus Cavernosal): 8.13 ± 0.05
Cn1c(=O)c2c(ncn2CCN2CCN(c3ccccc3Cl)CC2)n(C)c1=O [Compound 4, 7-{2-[4-(2-chlorophenyl)piperazinyl]ethyl}-1,3-dimethylxanthine] | 3.9 ± 0.1 nM | 69.2 nM | 14 ± 1.1 min | 14 ± 2.1 mmHg | 
7-[12-({5-[(4-methylpiperazin-1-yl)sulfonyl]-2-propoxybenzyl}amino)ethyl] dimethylxanthine [Compound 35] | 0.4 ± 0.1 nM |  |  |  | pEC50 (−log EC50) for relaxation (Rabbit Corpus Cavernosal): 8.25 ± 0.06
CC(C)Cn1c(=O)n(C)c(=O)c2c1ncn2CCN1CCN(c2ncccn2)CC1 [Compound 12, 7-{2-[4-(2-Pyrimidyl)piperazinyl]ethyl}-3-isobutyl-1-methylxanthine] |  |  | 15 ± 1.3 min | 23 ± 1.5 mmHg | 
CC(C)Cn1c(=O)n(C)c(=O)c2c1ncn2CCN1CCN(C(=O)c2ccco2)CC1 [Compound 18, 7-{2-[4-(2-furoyl)piperazinyl]ethyl}-3-isobutyl-1-methylxanthine] |  |  | 18 ± 1.3 min | 26 ± 1.4 mmHg | 

Now from value to compound, other results behind:

IC50 (PDE5 (human platelet)) | IC50 (Rabbit Corpus Cavernosal) | Compound | Duration of tumescence response (intracavernous pressure) | Peak increased intracavernous pressure ΔICP (mmHg) (intracavernous pressure) | also measured
4.8 ± 0.2 nM | 38 nM | Cc1ccccc1S(=O)(=O)N1CCN(CCn2cnc3c2c(=O)n(C)c(=O)n3CC(C)C)CC1 [Compound 26, 7-(2-{4-[(2-methylphenyl)sulfonyl]piperazinyl}ethyl)-3-isobutyl-1-methylxanthine] |  |  | 
6.2 ± 0.2 nM | 22.9 nM | CC(C)Cn1c(=O)n(C)c(=O)c2c1ncn2CCN1CCN(Cc2ccccc2)CC1 [Compound 17, 7-{2-[4-benzylpiperazinyl]ethyl}-3-isobutyl-1-methylxanthine] |  |  | 
0.8 ± 0.2 nM | 5.01 nM | CCCOc1ccc(C(N)=O)cc1CNCCn1cnc2c1c(=O)n(C)c(=O)n2CC(C)C [Compound 41, 4-propoxy-3-({[2-(3-isobutyl-1-methyl-2,6-dioxo-1,2,3,6-tetrahydro-7H-purin-7-yl)ethyl]amino}methyl)benzamide] |  |  | 
4.2 ± 0.2 nM | 74.1 nM | Cn1c(=O)c2c(ncn2CCN2CCN(Cc3ccccc3)CC2)n(C)c1=O [Compound 7, 7-{2-[4-benzylpiperazinyl]ethyl}-1,3-dimethylxanthine] |  |  | 
5.2 ± 0.1 nM |  | CCCn1cnc2c1c(=O)n(C)c(=O)n2CC(C)C [Compound 46] |  |  | pEC50 (−log EC50) for relaxation (Rabbit Corpus Cavernosal): 7.96 ± 0.03
3.8 ± 0.2 nM | 14.5 nM | CC(C)Cn1c(=O)n(C)c(=O)c2c1ncn2CCN1CCN(c2ccccc2Cl)CC1 [Compound 14, 7-{2-[4-(2-chlorophenyl)piperazinyl]ethyl}-3-isobutyl-1-methylxanthine] |  |  | EC50 (Rabbit Corpus Cavernosal; Control (no drug pretreatment)): 64.6 nM; EC50 (Rabbit Corpus Cavernosal; pretreatment 4-AP 100 μM): 1480 nM; EC50 (Rabbit Corpus Cavernosal; pretreatment Glibenclamide 1 μM): 269 nM; EC50 (Rabbit Corpus Cavernosal; pretreatment L-NAME 100 μM): 309 nM; EC50 (Rabbit Corpus Cavernosal; pretreatment Methylene blue 10 μM): 309 nM; EC50 (Rabbit Corpus Cavernosal; pretreatment ODQ 1 μM): 162 nM; EC50 (Rabbit Corpus Cavernosal; pretreatment TEA 10 mM): 9180 nM
